Results as given in patent US9839644B2, “Formulations and methods for treatment of metabolic syndrome” (ARKAY Therapeutics, LLC, priority 2014, dated 2017).
Entries after “also recorded” stand apart in the source; their conditions may differ.

Assays:
[1] = system: C57BL/6J mice; settings: mouse, in vivo; cited from earlier work
[2] = system: male Sprague Dawley rats fed with High fructose diet or High fat diet (HFD); settings: rat, in vivo; cited from earlier work
[3] = system: C57BL/6J diet-induced obese (DIO) mice; settings: cited from earlier work
[4] = system: C57BL/6J DIO mice; settings: Metformin alone (150 mg/Kg/day), 29-day study
Excerpt: Age and weight-matched C57BL/6J lean and DIO male mice were obtained from Jackson Labs (Bar Harbor, Me.). C57BL/6J DIO mice were fed high-fat diet (HFD) for 16 weeks to induce hepatic insulin resistance and pancreatic beta cell dysfunction. […] Lean control mice were maintained on D12450B (10% Kcal fat) Chow diet and DIO animals were maintained D12492 (60% KCal fat) research diets. Tap water was available ad libitum during the study. Animals were acclimated for a week. […] Test articles or the drugs were reconstituted in DMSO and 0.5% Methyl cellulose was used as the vehicle.
In a 29-day study, sub-maximal dose of Metformin (150 mg/Kg/day) and sub-maximal doses of Celecoxib (10 mg/Kg/day or 20 mg/Kg/day) were administered together or the vehicle was administered as an oral gavage in the morning and a sub-hypertensive dose of Valsartan (2 mg/Kg/day) or the vehicle was administered 6 hours later. Non-fasting BG measurements will be taken on Days 1, 15, 22, and 29. Animals were transferred to clean cages, food and water were uninterrupted. A blood sample was collected via tail nick and blood glucose was assessed using a hand-held Glucometer. Body weights were determined twice weekly for the duration of the study period.

[5] = system: pancreatic beta cells; settings: cited from earlier work
[6] = system: C57BL/6J obese mice; settings: cited from earlier work
[7] = system: C57BL/6J obese mice; settings: cited from earlier work; remark: listed apart in the source
[8] = system: obese patients with T2DM; settings: translational preclinical models and obese patients with T2DM; cited from earlier work
[9] = clinical study; cited from earlier work
[10] = system: subjects with impaired glucose metabolism; settings: 26 weeks; cited from earlier work
[11] = system: prediabetes patients; settings: cited from earlier work
[12] = system: C57BL/6J diet-induced obese (DIO) mice; settings: cited from earlier work; remark: listed apart in the source

## COc1ccc2c(c1)c(CC(=O)O)c(C)n2C(=O)c1ccc(Cl)cc1 [Indomethacin]
[1]
  HFD-induced obesity and insulin resistance: prevented

## CS(=O)(=O)Nc1ccc([N+](=O)[O-])cc1Oc1ccccc1 [Mesulid]
[2]
  insulin sensitivity: restore
  low-grade inflammation: reverse
  oxidative stress: reduce

## CN(C)C(=N)N=C(N)N [Metformin]
[3]; 2 g/Kg glucose after 20 hour fast, 0.25% and 0.5% Metformin = 150 and 300 mg/Kg/day
  glucose tolerance (OGTT): improves
[3]; C57BL/6J DIO model
  HFD-induced insulin resistance: ameliorates
[4]
  elevated non-fasting BG levels: actually enhanced; also recorded: did not suppress

## CS(=O)(=O)Nc1ccc([N+](=O)[O-])cc1OC1CCCCC1 [NS-398]
[5]
  beta cell dysfunction: reverses

## NS(=O)(=O)c1ccc(-n2nc(C(F)(F)F)cc2-c2ccc(Cl)cc2)cc1 [SC58236]
[6]; 6 hour fast, glucose 2 g/Kg
  glucose tolerance (IPGTT): improves
[6]; after glucose injection
  plasma insulin levels: elevates
[7]; C57BL/6J obese mice
  HbA1c levels: reduces
[7]; selective Cox-2 inhibition
  reduction of HbA1c levels: about 0.4%

## O=C(Oc1ccccc1C(=O)O)c1ccccc1O [Salsalate]
[8]
  systemic insulin sensitivity: restore
[9]
  reduction of glycosylated hemoglobin A1c, average: 0.37%

## CCCCC(=O)N(Cc1ccc(-c2ccccc2-c2nnn[nH]2)cc1)[C@H](C(=O)O)C(C)C [Valsartan]
[10]
  beta cells function and insulin sensitivity: improved
[11]
  onset of Type II diabetes: delay the onset
[12]; 1 mg/Kg/day, C57BL/6J obese mice
  systolic blood pressure: no effect
[12]; overnight fast, IP 2 g/Kg glucose
  glucose tolerance: improves
[12]; sub-hypertensive dose 1 mg/Kg/day, C57BL/6J obese mice
  impaired glucose tolerance: improves
